The values that follow come from patent US20090285887A1, “Pharmaceutical Composition Comprising A Plurality of Mini-Tablets Comprising A Factor XA Inhibitor” (priority 2006, published 2009).

The data set can be described thus: Preliminary pharmacokinetic analysis of absorption throughout the GI tract. It is filed as in vivo. The text has this:
In one aspect of the invention, the pharmaceutical composition enables the Factor Xa inhibitor to be absorbed throughout the GI tract, i.e. in the duodenum (proximal small intestine), ileum (distal small intestine) and cecum/colon. […] Accordingly, this comprises a further aspect of the invention.

For the molecule `C[C@@H](C(=O)N1CCOCC1)N1CC[C@H](NS(=O)(=O)/C=C/c2ccc(Cl)s2)C1=O` [Compound A, (E)-2-(5-chlorothien-2-yl)-N-{(3S)-1-[(1S)-1-methyl-2-morpholin-4-yl-2-oxoethyl]-2-oxopyrrolidin-3-yl}ethenesulfonamide], the “absorption throughout the GI tract” value is listed as “may be absorbed throughout the GI tract”.
